SMILES strings stand for the structures.

The values that follow come from patent publication US20100197604A1, “USE OF PEPTIDE AS A THERAPEUTIC AGENT” (priority 2007, published 2010).

Data set [1] has as its system CEM-SS cells. Kind of data set: Cytotoxicity in CEM-SS cells (MTS cell viability). Conditions: peptide 10 micrograms per ml.
Data set [2] has as its system HIV-1IIIB. As to the kind of experiment: HIV-1 antiviral assay (CPE reduction, MTS). The format is cell-based. Conditions: peptide 10 micrograms per ml, 6 days post-infection.
Data set [3] concerns HepG2-2.2.15 cells. Kind of data set: Cytotoxicity in HepG2-2.2.15 cells (dye uptake). The note with it: test peptide 10 micrograms per ml.
In data set [4] the test system is MRC-5 cells (human embryonal lung fibroblasts). Conditions: 6 days.
For data set [5], the system named is Streptococcus pneumoniae. The format is cell-based. Conditions: 5 micrograms per ml.
Data set [6] deals with Pseudomonas aeruginosa. The format is cell-based. The note with it: 5 micrograms per ml.
Data set [7] deals with MRSA. The note with it: 5 micrograms per ml.

As for `Cc1cn([C@H]2C[C@H](N=[N+]=[N-])[C@@H](CO)O2)c(=O)[nH]c1=O` [AZT], the “% Cell viability” value in data set [1] is reported as 97%. Further, the “% CPE reduction in HIV-1 infected CEM-SS cells” value in data set [2] is listed as 99%.

For the compound `Nc1ccn([C@@H]2CS[C@H](CO)O2)c(=O)n1` [Compound 3TC, Lamivudine], the “% Cell viability” value in data set [3] stood at 95.8%.

In the case of `Nc1nc(O)c2ncn(COC(CO)CO)c2n1` [Ganciclovir], the “% Cell viability” value in data set [4] was determined as 100%.

Broadly, the % inhibition is the percentage by which the read-out fell short of the control. A high value points to strong suppression. Turning to `CC[C@H](C)[C@H](NC(=O)[C@H](Cc1ccc(O)cc1)NC(=O)[C@@H](NC(=O)[C@H](CCCNC(=N)N)NC(=O)[C@@H](N)CC(=O)O)C(C)C)C(=O)N[C@@H](Cc1c[nH]cn1)C(=O)N1CCC[C@H]1C(=O)N[C@@H](Cc1ccccc1)C(=O)O` [Angiotensin II], the “% inhibition” value is given as 100.0% in data set [5], 0.0% in data set [6] and 0.0% in data set [7].
